Measurements: patent US20080103189A1, “PREPARATION AND UTILITY OF SUBSTITUTED INDOLES” (Auspex Pharmaceuticals, Inc., priority 2006, published 2008)

Conditions: topical or ocular, 5 microgram per mL
Experimental: Liver microsomal stability assays were conducted at 1 mg per mL liver microsome protein with an NADPH-generating system in 2% NaHCO3 (2.2 mM NADPH, 25.6 mM glucose 6-phosphate, 6 units per mL glucose 6-phosphate dehydrogenase and 3.3 mM MgCl2). Test compounds were prepared as solutions in 20% acetonitrile-water and added to the assay mixture (final assay concentration 5 microgram per mL) and incubated at 37° C. Final concentration of acetonitrile in the assay were <1%. Aliquots (50 μL) were taken out at times 0, 15, 30, 45, and 60 minutes, and diluted with ice cold acetonitrile (200 μL) to stop the reactions. Samples were centrifuged at 12000 RPM for 10 minutes to precipitate proteins. Supernatants were transferred to microcentrifuge tubes and stored for LC/MS/MS analysis of the degradation half-life of the test compounds.

## [2H]C([2H])(Cc1c[nH]c2ccc(CS(=O)(=O)N3CCCC3)cc12)N(C)C
  increase in the degradation half-life as compared to the non-isotopically enriched drug: 20-250%
